Measured values taken from paper PMC10583352, “B7H3 targeting gold nanocage pH-sensitive conjugates for precise and synergistic chemo-photothermal therapy against NSCLC” (Journal of Nanobiotechnology, 2023).

Legend:
NCI-H1299 cells [1] = assay: Cell cycle analysis (PI/RNase, flow cytometry); assay type: cell-based, human; settings: without irradiation, 1 μg/mL Dox equivalent, 24 h
Protocol: Next, Dox, GNCs, B7H3@GNCs, Dox@GNCs, or B7H3/Dox@GNCs (1 μg/mL Dox equivalent) were added to the culture medium. […] After the cells were fixed, RNase A solution was added to degrade RNA, and cells were stained with PI. Finally, the samples were subjected to cell cycle analysis using flow cytometry. ROS was detected using the method described above, except that the cells were stained with DCFH-DA and analyzed using flow cytometry.

[2] = system: NCI-H1299 cell-derived xenograft; assay: Antitumor efficacy in NCI-H1299 cell-derived xenograft; assay type: in vivo, BALB/c nude mice; settings: 14 day treatment
Protocol: The heterotopic xenograft mouse model of NSCLC was established by subcutaneous injection of 1.0 × 10^7 NCI-H1299 cells into the right dorsal side of BALB/c nude mice. The tumor size and body weight of the mice were measured and recorded every 2 days. The tumor volume (mm^3) was calculated using the formula: V = W^2 × L/2, where the width (W) and length (L) were measured using an electronic caliper. When the tumor volume reached 80–100 mm^3, mice were administered i.v. Dox at a dose of 3 mg/kg in the indicated formulation at 3 day intervals via the tail vein until euthanized.

[3] = Biodistribution of Dox in tumor-bearing mice; assay type: in vivo, BALB/c athymic nude male mice; settings: i.v. 3 mg/kg Dox
Protocol: A xenograft model was established using BALB/c athymic nude male mice (weight: 20 ± 2 g) and NCI-H1299 cells. […] The collected tissues were rinsed in ice-cold physiological saline to remove the superficial blood and other debris and stored at − 80 ℃ until analysis. The collected tissues were diced into small pieces and homogenized with three volumes of saline. Subsequently, 100 μL plasma and tissue homogenate samples were spiked with 10 μL epirubicin as the internal standard and vortex-mixed with 300 μL methanol for 5 min. After 15 min of centrifugation at 15,000 × g and 4 °C to precipitate proteins, 5 μL supernatant aliquots were analyzed using HPLC–MS/MS.

NCI-H1299 lung tumor = assay: Histological examination (H&E, CD34 IHC) of tissues of xenograft-bearing mice; assay type: in vivo; settings: xenograft-bearing mice after i.v. administration
NCI-H1299 cells [4] = assay: MTT cytotoxicity with/without NIR irradiation; assay type: cell-based, human; settings: without irradiation, 24 h
Protocol: The cytotoxicity of B7H3/Dox@GNCs on tumor cells was assessed using the MTT assay. Briefly, NCI-H1299 cells (4 × 10^3 cells/well) were seeded in a 96-well plate and incubated for 12 h until the cells were completely attached. […] The cells were cultured for another 12 h and cell viability was determined using the MTT method.

[5] = Pharmacokinetics after single i.v. administration in rats (plasma Dox, LC-MS/MS); assay type: in vivo, Sprague–Dawley rats; settings: 3 mg/kg Dox equivalent, Mean ± SD, n = 6
Protocol: The pharmacokinetic properties of B7H3/Dox@GNCs were studied using 18 male Sprague–Dawley rats, weighing 200 ± 20 g. The rats were randomly divided into three groups (n = 6 per group) and administered Dox•HCl, Dox@GNCs, and B7H3/Dox@GNCs (3 mg/kg Dox equivalent dose) intravenously (i.v.) through the tail vein. Next, 300 μL blood samples were collected into heparinized tubes from the venous plexus at 0, 0.05, 0.13, 0.25, 0.5, 1, 1.5, 2, 4, 6, 8, 12, and 24 h. After centrifugation at 3000 × g for 15 min, the plasma samples were obtained and stored at – 80 ℃ until analysis.
The collected tissues were diced into small pieces and homogenized with three volumes of saline. Subsequently, 100 μL plasma and tissue homogenate samples were spiked with 10 μL epirubicin as the internal standard and vortex-mixed with 300 μL methanol for 5 min. After 15 min of centrifugation at 15,000 × g and 4 °C to precipitate proteins, 5 μL supernatant aliquots were analyzed using HPLC–MS/MS.

Q: Which results are given for `COc1cccc2c1C(=O)c1c(O)c3c(c(O)c1C2=O)C[C@@](O)(C(=O)CO)C[C@@H]3O[C@H]1C[C@H](N)[C@H](O)[C@H](C)O1.Cl` [Dox, doxorubicin hydrochloride]?
A: effect on cell cycle (NCI-H1299 cells [1]): stagnated in the S phase and G2/M phase; body weight of mice [2]: drastic decrease in body weight; tumor growth ([2]; xenograft mice, i.v.): suppressed tumor growth; Dox concentrations in heart, liver, lungs, spleen and kidneys versus Dox@GNCs and B7H3/Dox@GNCs groups [3]: significantly higher; heart tissue histology (H&E) (NCI-H1299 lung tumor): Dox-induced damage to the heart was observed; IC50 (NCI-H1299 cells [4]): 2.50 µg/mL; CL [5]: 2.17 ± 0 mL/min/kg; MRT0-∞ [5]: 9.43 ± 0.46 h; T1/2 [5]: 8.67 ± 0.34 h; Vd [5]: 1.64 ± 0.41 L/kg
